From patent US12522596B2, “Compounds as GLP-1R agonists” (Terns Pharmaceuticals, Inc., priority 2021, dated 2026)
Entries after “also recorded” stand apart in the source; their conditions may differ.

Experiments:
[1] = tested on: rat hepatocytes; assay: Metabolic stability in rat hepatocytes; format: in vitro ADME
Summary of the method: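 Compounds at 1 μM (0.1% DMSO) were incubated with 1×10^6 cells/mL cryopreserved rat or human hepatocytes in DMEM at 37°C for 0–240 min. Parent remaining was measured by LC-MS/MS; k from semi-log decline gave t1/2 and CLint, with CLhep predicted by the well-stirred model.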

[2] = Rat pharmacokinetics, intravenous dosing; format: in vivo, Sprague-Dawley rats; settings: for AUC(0-t) / Cmax / clearance / half-life: male, Sprague-Dawley, rat plasma, 1 mg/kg IV (0.5 mg/mL)
Procedure: Intravenous dosing: Compounds were formulated at 0.5 mg/mL in a solution comprising 5% polyethylene glycol 400 and 95% (12% (w/v) sulfobutyl-β-cyclodextrin in water) (v/v). Formulated compounds were sterile filtered through a 0.22 micron filter before dosing. Compounds were administered to male, 7-11-week-old Sprague-Dawley rats by jugular vein cannula infusion over 30 minutes at a dose of 1 mg/kg.
Sample collection: Blood collections of about 0.2 mL per time point were performed from jugular vein or other suitable site of each animal, into pre-chilled commercial EDTA-K2 tubes and placed on wet ice until centrifugation. Blood samples were processed for plasma by centrifugation at approximately 4° C., 3,200 g for 10 min. Plasma was collected and transferred into pre-labeled 96 well plate or polypropylene tubes, quick frozen over dry ice and kept at −60° C. or lower until LC-MS/MS analysis.
Data analysis: Plasma concentration versus time data was plotted in graph and analyzed by non-compartmental approaches using the Phoenix WinNonlin 6.3 software program. Related PK parameters were calculated according to dosing route, e.g., CL, Vdss and C0 for intravenous administration, Cmax, Tmax or % F for extravascular administration, and T1/2, AUC(0-t), AUC(0-inf), MRT(0-t), MRT(0-inf) for all routes.

[3] = tested on: C57BL/6 mice expressing human GLP-1R (hGLP-1R); assay: Food intake in humanized mouse model; format: in vivo; settings: hGLP-1R mice, relative to vehicle control; Compound 2 10, 30, 60 mg/kg PO
Procedure: The ability of compounds disclosed herein to modify the food intake of C57BL/6 mice expressing human GLP-1R (hGLP-1R) was evaluated.
The dose protocol used in this study is described in Table 6.
Acclimation and grouping: Mice were acclimated for QD PO dosing with vehicle for 4 days, baseline body weight and food intake were measured for 4 consecutive days. Animals were allocated into 8 groups based on body weight and 3rd day's food intake.
Dose body weight and food intake measurement: All animals were placed in clean cages with sawdust bedding and fasted overnight, mice were dosed with vehicle or test compound in the morning. All group's food was added 15 minutes post dosing, food remaining was recorded at 2-, 4-, 6-, 8-, 10- and 24-h post dosing. (FIG. 4) Body weight was determined on a daily basis during the study.
Data processing and analysis: Manual data were transferred into an excel spreadsheet. All values were expressed as mean±S.E.M. The significances of the differences among groups and within groups are evaluated by one-way or two-way ANOVA using Graph Pad statistic software. A p-value of less than 0.05 was considered statistically significant.

[4] = rat, intravenous administration

Row | SMILES | CLint relative to reference standard [1] | Half-life relative to reference [1] | AUC(0-t) [2] [ng·h/mL] | Cmax [2] [ng/mL] | clearance [2] [mL/min/kg] | half-life [2] [h] | food intake [3] | longer t1/2 as compared with Reference Compound A [2, 4] [fold] | lower clearance as compared with Reference Compound A [2, 4] [%]
1 | Cc1ncsc1Cn1c(CN2CCC(c3cccc(OCc4ccc(C#N)cc4F)n3)CC2)nc2ccc(C(=O)O)cc21 [Compound 4] | significantly lower | significantly higher | – | – | – | – | – | – | –
2 | N#Cc1ccc(COc2cccc(C3CCN(Cc4nc5ccc(C(=O)O)cc5n4C[C@@H]4CCO4)CC3)n2)c(F)c1 [Reference Compound A, reference compound] | – | – | 325 ± 16.8 | 486 ± 37.9 | 51.2 ± 2.59 | 0.613 ± 0.344 | reduction in food intake | – | –
3 | N#Cc1ccc(COc2cccc(C3CCN(Cc4nc5ccc(C(=O)O)cc5n4Cc4cncs4)CC3)n2)c(F)c1 [Compound 2] | not significantly different | – | 427 ± 27.7 | 596 ± 42.3 | 38.8 ± 2.55 | 1.57 ± 0.583 | reduction in food intake; also recorded: significantly suppressed food intake | ~2 | 30
4 | N#Cc1ccc(COc2cccc(N3CCN(Cc4nc5ccc(C(=O)O)cc5n4Cc4cncs4)CC3)n2)c(F)c1 [Compound 30] | significantly lower | significantly higher | – | – | – | – | – | – | –

Second part, led by results:

Row | CLint relative to reference standard [1] | Half-life relative to reference [1] | SMILES | AUC(0-t) [2] [ng·h/mL] | Cmax [2] [ng/mL] | clearance [2] [mL/min/kg] | half-life [2] [h] | food intake [3] | longer t1/2 as compared with Reference Compound A [2, 4] [fold] | lower clearance as compared with Reference Compound A [2, 4] [%]
5 | significantly lower | significantly higher | CC1(c2ccc(C#N)cc2F)Oc2cccc(C3CCN(Cc4nc5ccc(C(=O)O)cc5n4Cc4cncs4)CC3)c2O1 (stereo not drawn) [Compound 31] | – | – | – | – | – | – | –
6 | significantly lower | significantly higher | N#Cc1ccc(COc2ccnc(C3CCN(Cc4nc5ccc(C(=O)O)cc5n4Cc4cncs4)CC3)n2)c(F)c1 [Compound 20] | – | – | – | – | – | – | –
